From US20210046101A1, “COMBINATION THERAPEUTICS” (UCL BUSINESS LTD, priority 2018, published 2021)
Where a SMILES comes first, the peptide text is derived from it. The star is where a group is joined. Cbz = O=C(OCc1ccccc1)*; CH2F = FC*

B1: TRAIL: TNF-related apoptosis-inducing ligand; used as mouse iz-TRAIL (protein, UniProt P50592 39-291, looked up)
extracellular domain: YMYFTNEMKQLQDNYSKIGLACFSKTDEDFWDSTDGEILNRPCLQVKRQLYQLIEEVTLRTFQDTISTVPEKQLSTPPLPRGGRPQKVAAHITGITRRSNSALIPISKDGKTLGQKIESWESSRKGHSFLNHVLFRNGELVIEQEGLYYIYSQTYFRFQEAEDASKMVSKDKVRTKQLVQYIYKYTSYPDPIVLMKSARNSCWSRDAEYGLYSIYQGGLFELKKNDRIFVSVTNEHLMDLDQEASFFGAFLIN
modifications: extracellular domain isoleucine zipper fusion

What was measured:
[1] = test system: PMKs derived from Hoip^E-KO mice; assay: Viability of primary murine keratinocytes (PMKs) from Hoip^E-KO mice cultured with inhibitors, CellTiter-Glo assay; format: cell-based, mouse; details: no exogenous stimulus, cultured four days with 20 μM Z-VAD-fmk, 10 μM Necrostatin-1s or 1 μM RIPK3 inhibitor (FIG. 3e)
Description: FIG. 3. Aberrant apoptosis drives lethal dermatitis in Hoip^E-KO and Hoil-1^E-KO mice. a, Quantification of TUNEL and CC3 positive cells in skin sections from mice with the indicated genotypes (n=3 mice per genotype). Error bars represent mean values±s.e.m. *P≤0.05, **P≤0.01, ***P≤0.001. b, Representative images of skin sections from mice with the indicated genotypes (n=4) stained with antibody against CD45 (red) at P0. Nuclei were stained with DAPI (blue). White dashed lines separate the epidermis (above) from the dermis (below). Scale bar, 50 μm. c, Flow cytometry analysis of immune cells in skin samples from mice with the indicated genotypes at the indicated postnatal days. […] Lysates and IP were analysed by Western blotting for the indicated proteins. e, PMKs derived from Hoip^E-KO and control mice were cultured for four days in absence (NT: not-treated) or presence of the inhibitors Necrostatin-1s (N), ZVAD-fmk (Z) or RIPK3i. Cell viability (%) was measured by CellTiter-Glo assay on day four. […] CC3: cleaved Caspase-3. f, Cell viability (%) measured by CellTiter-Glo assay of PMKs derived from adult mice with the indicated genotypes. Results are expressed as mean values±SEM (n=8 mice per genotype). […] CC3: cleaved Caspase-3. i, Quantification of TUNEL and CC3 positive cells in skin sections from mice with the indicated genotypes (n=3 mice per genotype). […]

[2] = test system: PMKs derived from Tnfr1^KO;Hoil-1^E-KO mice; assay: Viability of PMKs from Tnfr1^KO;Hoil-1^E-KO mice after death ligand / Poly(I:C) stimulation, CellTiter-Glo assay; format: cell-based, mouse; details: 24 hours; TRAIL 50 ng/ml, CD95L 50 ng/ml, Poly(I:C) 100 μg/ml; control = Tnfr1^KO PMKs with HOIL-1 (FIG. 4a)
Procedure: FIG. 4. CD95L- and TRAIL-induced cell death drives TNFR1-independent dermatitis. a, PMKs derived from adult mice with the indicated genotypes were treated or not for 24 hours with TRAIL [50 ng/ml], CD95L [50 ng/ml] and Poly(I:C) [100 μg/ml]. Cell viability (%) was measured by CellTiter-Glo assay. Results are expressed as mean values±SEM. (n=7 mice per genotype). **p≤0.01, ***p≤0.001, NS=not significant. Control mice represent a pool of Tnfr1^KO;Hoil-1^fl/fl;K14-Cre− and Tnfr1^KO;Hoil-1^fl/wt;K14-Cre+ mice b, Representative images of mice with the indicated genotypes. c, Severity score of dermatitis was assessed at P70 in mice with the indicated genotypes. The total score was determined by evaluating the regions of the body affected by the lesions (black) and the character of the lesion (white). Tnfr1^KO;Hoil-1^E-KO (n=6), Trail-r^KO;Tnfr1^KO;Hoil-1^E-KO (n=4), Tlr3^KO;Tnfr1^KO;Hoil-1^E-KO (n=4), Cd95^E-DD; Tnfr1^KO; Hoil-1^E-KO (n=12), Trail-r^KO; Tlr3^KO;Tnfr1^KO;Hoil-1^E-KO (n=20) and Cd95^E-DD;Trail-r^KO;Tnfr1^KO;Hoil-1^E-KO (n=19), Mlkl^KO;Tnfr1^KO;Hoip^E-KO (n=13). d, Kaplan-Meier survival curve of mice with the indicated genotypes. […]
Isolation, culture and viability of primary murine keratinocytes. […] On the last day, cell viability was measured using the CellTiter-Glo Luminescent Cell Viability Assay kit (Promega) following the manufacturers instructions. […]

| Molecule | loss in viability of HOIP-deficient PMKs (cell viability, CellTiter-Glo) [1] | cell viability as compared to control PMKs (CellTiter-Glo) [2] |
| --- | --- | --- |
| COC(=O)C[C@H](NC(=O)[C@H](C)NC(=O)[C@@H](NC(=O)OCc1ccccc1)C(C)C)C(=O)CF [ZVAD, Z-VAD-fmk] (Cbz-Val-Ala-Asp(OMe)-CH2F) | prevented |  |
| Polyinosinic:polycytidylic acid [Poly(I:C)] |  | decreased cell viability |
| CN1C(=O)NC(Cc2c[nH]c3c(Cl)cccc23)C1=O (stereo not shown) [necrostatin-1s, Necrostatin-1s] | prevented |  |
| B1 |  | decreased cell viability |
